The source of these data is ChEMBL document CHEMBL5728073, “Compounds that inhibit Mcl-1 protein” (2020).

The structures appear in SMILES notation.

The test can be described thus: Time-Resolved Fluorescence Resonance Energy Transfer (TR-FRET) Assay: The inhibition of the Mcl-1/Bim interaction was measured using a time-resolved fluorescence resonance energy transfer (TR-FRET) assay. The recombinant human Mcl-1 (C-terminally 6ÃHis tagged Mcl-1 containing residues 171-327) was generated at Amgen Inc (Thousand Oaks, Calif.). A biotinylated peptide derived from human Bim ….

Description: Time-Resolved Fluorescence Resonance Energy Transfer (TR-FRET) Assay: The inhibition of the Mcl-1/Bim interaction was measured using a time-resolved fluorescence resonance energy transfer (TR-FRET) assay. […] A biotinylated peptide derived from human Bim (residues 51-76) was purchased from CPC Scientific (San Jose, Calif.). The TR-FRET assay was conducted in a 384-well white OptiPlate (PerkinElmer, Waltham, Mass.) in a total volume of 40 uL. […] The reaction plates were further incubated overnight and then were read on an EnvisionÂ multimode reader (PerkinElmer). […] The IC50 values of test compounds were determined from duplicate data by analyzing competition curves using a four-parameter sigmoidal model in GraphPad Prism.

In general, IC50 refers to the midpoint of a concentration-inhibition curve. Take `C[C@@H]1[C@@H](C)C/C=C\[C@](O)(CN2CCN3CCCC[C@@H]3C2)[C@@H]2CC[C@H]2CN2C[C@@]3(CCCc4cc(Cl)ccc43)COc3ccc(cc32)C(=O)NS1(=O)=O`: the IC50 was 0.097 nM.
With `CCCCN1CCN(C[C@]2(OC)/C=C/C[C@H](C)[C@@H](C)S(=O)(=O)NC(=O)c3ccc4c(c3)N(C[C@@H]3CC[C@H]32)C[C@@]2(CCCc3cc(Cl)ccc32)CO4)CC1`, the IC50 stood at 0.225 nM.
For `CO[C@@]1(CN2CCN3CCC(F)(F)C[C@@H]3C2)/C=C\C[C@H](C)[C@@H](C)S(=O)(=O)NC(=O)c2ccc3c(c2)N(C[C@@H]2CC[C@H]21)C[C@@]1(CCCc2cc(Cl)ccc21)CO3`, the IC50 was found to be 0.494 nM.
